Assays:
in vitro [1] = conditions: mouse, microsomes
in vitro [2] = conditions: mouse, microsomes; remark: listed apart in the source
in vitro [3] = conditions: human, microsomes
in vitro [4] = conditions: human, microsomes; remark: listed apart in the source
in vitro [5] = conditions: mouse, microsomes; remark: listed apart in the source
in vitro [6] = conditions: human, microsomes; remark: listed apart in the source
[7] = mouse, microsomes, 1 µM
in vitro [8] = conditions: mouse, microsomes; remark: listed apart in the source
[9] = mouse, microsomes, 1 µM; remark: listed apart in the source
[10] = human, microsomes, 1 µM
in vitro [11] = conditions: mouse, microsomes; remark: listed apart in the source
[12] = human, microsomes, 1 h, 1 µM
in vitro [13] = conditions: human, microsomes; remark: listed apart in the source
in vitro [14] = conditions: human, microsomes; remark: listed apart in the source
[15] = Metabolic stability in mouse plasma assessed as compound remaining at 5 uM; assay type: ADME, cell-free; conditions: read-out: Stability
[16] = Half life in mouse plasma at 5 uM; assay type: ADME, cell-free

SMILES: CC(=O)c1ccc(N(C)S(=O)(=O)c2cccc(C(=O)Nc3ccc(Cl)cc3)c2)cc1
- remaining at 1 µM (in vitro [1]): 108%
- remaining at 1 µM (in vitro [2]): 0%
- remaining at 1 µM (in vitro [3]): 12%

SMILES: CC(=O)c1ccc(N(C)S(=O)(=O)c2cccc(C(=O)Nc3ccc(Cl)cn3)c2)cc1
- remaining at 1 µM (in vitro [1]): 91%
- remaining at 1 µM (in vitro [2]): 0%
- remaining at 1 µM (in vitro [3]): 12%
- remaining at 1 µM (in vitro [4]): 82%

SMILES: CN(c1ccc(Cl)cc1)S(=O)(=O)c1cccc(C(=O)Nc2ccc(C#N)cn2)c1
- remaining at 1 µM (in vitro [1]): 96%
- remaining at 1 µM (in vitro [2]): 1%
- remaining at 1 µM (in vitro [3]): 2%
- remaining at 1 µM (in vitro [4]): 91%

SMILES: CN(c1ccc(F)cc1)S(=O)(=O)c1cccc(C(=O)Nc2ccc(C#N)cc2)c1
- remaining at 1 µM (in vitro [3]): 16%

SMILES: CN(c1ccc(S(C)(=O)=O)cc1)S(=O)(=O)c1cccc(NC(=O)c2ccc(Br)cc2)c1
- microsomal CLint at 1 µM (in vitro [5]): 945 µL/min/mg
- microsomal CLint at 1 µM (in vitro [6]): 512 µL/min/mg
- t1/2 [7]: 1.7 min
- half-life at 1 µM (in vitro [8]): 2.45 min
- CL [9]: 136 µL/min/mg
- t1/2 [10]: 75.7 min
- remaining at 1 h, 1 µM (in vitro [11]): 1.5%
- Stability [12]: 0.9%
- half-life at 1 µM (in vitro [13]): 4.5 min
- microsomal CLint at 1 µM (in vitro [14]): 31 µL/min/mg

SMILES: CN(c1ccc(Cl)cc1)S(=O)(=O)c1cccc(C(=O)Nc2ccc(S(C)(=O)=O)cc2)c1
- remaining at 1 µM (in vitro [1]): 100%
- remaining at 1 µM (in vitro [2]): 4%
- remaining at 1 µM (in vitro [3]): 2%
- remaining at 1 µM (in vitro [4]): 112%

SMILES: COc1ccc(N(C)S(=O)(=O)c2cccc(C(=O)Nc3ccc(C#N)cc3)c2)cc1
- remaining at 1 µM (in vitro [1]): 90%
- remaining at 1 µM (in vitro [2]): 2%
- remaining at 1 µM (in vitro [3]): 2%
- remaining at 1 µM (in vitro [4]): 106%

SMILES: CC(C)[N+](C)(CCOC(=O)C1c2ccccc2Oc2ccccc21)C(C)C [PROPANTHELINE]
- remaining at 5 µM [15]: 3.4%
- half-life at 5 µM [16]: 18 min
